Data from paper PMC8122956, “Development of a Robust High-Throughput Screening Platform for Inhibitors of the Striatal-Enriched Tyrosine Phosphatase (STEP)” (International Journal of Molecular Sciences, 2021).
pIC50: −log10 of the molar value.

Key:
[1] = target: T1, Human PTP1B catalytic domain (1-300) (Homo sapiens, UniProt P18031); test: PTP1B Michaelis-Menten kinetic assay with DiFMUP; format: biochemical; conditions: PTP1B 0.5 nM
T1 construct: Human PTP1B catalytic domain (1–300) was cloned into PET-15b; His tag (pET-15b) (N); made in house; host or cells: E. coli (as for STEP46, BL21 (DE3))
T1 sequence (P18031 1-300): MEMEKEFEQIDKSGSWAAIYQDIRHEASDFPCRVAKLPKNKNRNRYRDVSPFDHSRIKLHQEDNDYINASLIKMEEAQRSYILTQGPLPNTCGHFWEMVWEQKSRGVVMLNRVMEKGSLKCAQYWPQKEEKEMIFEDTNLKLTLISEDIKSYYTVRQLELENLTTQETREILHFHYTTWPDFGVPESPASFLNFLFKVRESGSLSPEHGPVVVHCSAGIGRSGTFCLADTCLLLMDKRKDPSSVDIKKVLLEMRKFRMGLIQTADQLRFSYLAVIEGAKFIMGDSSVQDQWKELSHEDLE
Description: Human STEP46 and PTP1B activity was measured at room temperature (RT) in a 384-well plate format standard phosphatase fluorescence intensity assay using DiFMUP as a substrate and a total reaction volume of 25 μL. PTP working solutions were prepared at a 0.625 nM concentration (for a final concentration of 0.5 nM) in buffer containing 50 mM Bis-Tris pH 6.0, 50 mM NaCl, 5 mM DTT, and 0.01% Tween® 20. DiFMUP working solutions at 5X final concentration were prepared in 50 mM Bis-Tris pH 6.0, 50 mM NaCl, and 0.01% Tween 20. […] Fluorescence intensity was measured in kinetic mode (every minute for 10 min) using a Tecan Spark® Multimode Microplate Reader (Tecan, Groedig, Austria) with an excitation wavelength of 360 nm and an emission wavelength of 460 nm. The initial rates were determined from the linear progress curves of the PTP reaction. […] Michaelis–Menten plots were generated for each PTP construct, and Michaelis–Menten constants (Km) were calculated using the program GraphPad Prism (version 8, GraphPad Software, Inc., San Diego, CA, USA).

full-length human STEP46 = target: T2, full-length human STEP46 (Homo sapiens, UniProt P54829); test: STEP46 biochemical inhibition assay (DiFMUP phosphatase fluorescence intensity assay); conditions: powder-confirmed hits, 10-pt dose-response, 0.5 nM STEP46, DiFMUP 3 μM, 20 min preincubation, pH 6.0, RT
T2 construct: Codon-optimized human full-length STEP46 cDNA was synthesized; His tag (pET-15b) (N); made in house; host or cells: E. coli BL21 (DE3)
T2 sequence (P54829 173-541 isoform P54829-3 limits assumed): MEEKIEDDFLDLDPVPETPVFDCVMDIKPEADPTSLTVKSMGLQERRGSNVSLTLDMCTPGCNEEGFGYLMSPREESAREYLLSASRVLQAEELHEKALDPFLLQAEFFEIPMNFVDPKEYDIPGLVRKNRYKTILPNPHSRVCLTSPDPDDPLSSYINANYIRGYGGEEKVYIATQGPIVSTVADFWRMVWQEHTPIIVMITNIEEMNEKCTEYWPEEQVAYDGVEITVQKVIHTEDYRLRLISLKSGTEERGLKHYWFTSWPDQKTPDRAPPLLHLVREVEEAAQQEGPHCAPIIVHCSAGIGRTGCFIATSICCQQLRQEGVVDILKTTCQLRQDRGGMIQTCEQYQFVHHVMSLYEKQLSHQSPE
Excerpt: Employing the established STEP46 DiFMUP assay to determine enzymatic activity, we tested the 72 confirmed hits in 10-pt dose-response biochemical inhibition experiments. […] This rate of biochemically active compounds from confirmed PTS hits was in agreement with our prior experience from a similar PTS screening campaign against the SHP2 phosphatase (unpublished data). Next, we obtained commercial dry powders of the 17 biochemically active hits to confirm their activity from pure, fresh material. Powders were quality controlled using standard ^1H-NMR and LC-MS methods and repurified in cases where purity was determined to be below 95%. Pure powders were then retested in 10-pt dose-response STEP46 inhibition assays. Activity could be confirmed for 10 of the 17 powders.
(§1) Hit compounds were tested at room temperature (RT) in a 384-well plate format standard phosphatase fluorescence intensity assay using DiFMUP as a substrate and a total reaction volume of 25 μL. Compounds or vehicle (DMSO) were spotted in triplicate into a black Greiner FLUOTRAC 200 384-well microplate for a 10-point dose-response assay using the Echo 555 liquid handler. PTP working solutions were prepared at a 0.625 nM concentration (for a final concentration of 0.5 nM) in buffer containing 50 mM Bis-Tris pH 6.0, 50 mM NaCl, 5 mM DTT, and 0.01% Tween 20. DiFMUP working solutions at 5X final concentration were prepared in 50 mM Bis-Tris pH 6.0, 50 mM NaCl, and 0.01% Tween 20. PTP working solution (20 μL) was dispensed into the microplate and incubated with compound for 20 min at RT. […] The reaction was initiated by addition of 5 μL DiFMUP working solutions. Fluorescence intensity was measured in a kinetic mode as described above. IC50 values were calculated from the corrected initial rates by nonlinear regression using the program GraphPad Prism (version 8, GraphPad Software, Inc., San Diego, CA, USA).

[2] = target: T1, Human PTP1B catalytic domain (1-300); test: PTP1B biochemical inhibition assay (DiFMUP phosphatase fluorescence intensity assay); conditions: powder-confirmed hits, 10-pt dose-response, 0.5 nM PTP1B, DiFMUP 25 μM, 20 min preincubation, pH 6.0, RT
Description: One of the major issues in prior STEP HTS campaigns using phosphatase activity as a readout was the lack of potent chemical matter with relative selectivity for STEP (PubChem AID: 588,619 and our unpublished data). […] For these assays, we expressed and purified the catalytic domain of PTP1B (1-300) using an approach similar to the one described for STEP46 above. The enzymatic activity of the highly pure PTP1B was assessed by adapting the DiFMUP phosphatase assay. Similar to STEP46, a concentration of 0.5 nM PTP1B was found optimal for kinetic experiments. […] Using DiFMUP at that concentration, we tested all 10 powder-confirmed hits in 10-pt dose-response inhibition assays against PTP1B.
as §1

AD mice = system: AD mice; design: method as in PMID 25093460; conditions: cited from earlier work

Km [1] | pIC50 (full-length human STEP46) | pIC50 [2] | SMILES | Effect on cognitive deficits in AD mice (AD mice)
25 µM | – | – | Cc1cc(=O)oc2c(F)c(OP(=O)(O)O)c(F)cc12 [DiFMUP, 6,8-difluoro-4-methylumbelliferyl phosphate] | –
– | 5.24 | 5.21 | Cc1ccc(Nc2nc(CSc3nnnn3-c3ccccc3)cc(=O)[nH]2)cc1 [SBI-0738] | –
– | 5.26 | 4.66 | Cc1c2c(=O)n(-c3nc4ccccc4s3)[nH]c2cc(=O)n1CCC(C)C [SBI-0743] | –
– | 5.15 | 4.55 | O=C(CSc1c[nH]nn1)Nc1ccc(/C=C/c2ccccc2)cc1 [SBI-1359] | –
– | 5.28 | 4.85 | NC(=O)c1cccc(NC(=O)c2cc3c(ccc4ccccc43)o2)c1 [SBI-2136] | –
– | 5.30 | < 4.00 | Nc1oc2cc(O)ccc2c(=O)c1-c1nc2ccccc2s1 [SBI-6066] | –
– | 5.27 | < 4.00 | Cc1cc(C)cc(C(=O)Nc2ccc(-c3nc4ccccc4[nH]3)cc2)c1 [SBI-6083] | –
– | 4.74 | 4.24 | O=C(Cc1ccc(Cl)cc1)Nc1ccc(C(=O)Nc2cccc(O)c2)cc1 [SBI-6727] | –
– | 4.49 | < 4.00 | N#Cc1sc2nc(-c3ccc4c(c3)OCO4)ccc2c1N [SBI-7297] | –
– | 4.80 | 4.10 | COc1ccccc1-c1ccc2c(N)c(C#N)sc2n1 [SBI-8771] | –
– | 4.48 | 4.70 | Nc1ccc(NCC2CCCO2)c(C(=O)O)c1 (stereo not shown) [SBI-8929] | –
– | – | – | Nc1cc(C(F)(F)F)cc2c1SSSSS2 [TC-2153] | effectively reversed cognitive deficits
